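Step 1: Grow cells in 96-well plates. Step 2: Expose to compound for 48 hours at 5 concentrations. Step 3: Interpolate endpoints linearly; if unreached, use highest concentration. GI50 marks 50% less growth.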 Activity calls are given as the source filed them. Cut-off read from the data, not from the text of the source: active = GI50 up to about 1.1 µM and inactive = higher.
Assays:
Assay in all cases: growth of human tumour cells (NCI), 48 h
IGROV-1 = tested on: IGROV-1
SW-620 = tested on: SW-620
NCI/ADR-RES = tested on: NCI/ADR-RES
MCF7 = tested on: MCF7
T47D = tested on: T47D
UO-31 = tested on: UO-31
SNB-19 = tested on: SNB-19
A549 = tested on: A549
SF-295 = tested on: SF-295
UACC-62 = tested on: UACC-62
CCRF-CEM = tested on: CCRF-CEM
HOP-62 = tested on: HOP-62
A498 = tested on: A498
TK-10 = tested on: TK-10
MDA-MB-231 = tested on: MDA-MB-231
SF-268 = tested on: SF-268
SNB-75 = tested on: SNB-75
NCI-H460 = tested on: NCI-H460
K562 = tested on: K562
OVCAR-4 = tested on: OVCAR-4
HCT-116 = tested on: HCT-116
UACC-257 = tested on: UACC-257
COLO 205 = tested on: COLO 205
SR = tested on: SR
MDA-MB-435 = tested on: MDA-MB-435
SK-MEL-5 = tested on: SK-MEL-5
CAKI-1 = tested on: CAKI-1
SN12C = tested on: SN12C
NCI-H226 = tested on: NCI-H226
EKVX = tested on: EKVX
HCT-15 = tested on: HCT-15
NCI-H23 = tested on: NCI-H23
786-0 = tested on: 786-0
MDA-N = tested on: MDA-N
OVCAR-3 = tested on: OVCAR-3
OVCAR-5 = tested on: OVCAR-5
DU-145 = tested on: DU-145
KM12 = tested on: KM12
BT-549 = tested on: BT-549
NCI-H522 = tested on: NCI-H522
HL-60 = tested on: HL-60
Hs-578T = tested on: Hs-578T
OVCAR-8 = tested on: OVCAR-8
Malme-3M = tested on: Malme-3M
RPMI-8226 = tested on: RPMI-8226
HOP-92 = tested on: HOP-92
M14 = tested on: M14
MOLT-4 = tested on: MOLT-4
U-251 = tested on: U-251
PC-3 = tested on: PC-3
SF-539 = tested on: SF-539
ACHN = tested on: ACHN
HT-29 = tested on: HT-29
SK-MEL-28 = tested on: SK-MEL-28
LOX IMVI = tested on: LOX IMVI
HCC 2998 = tested on: HCC 2998
SK-OV-3 = tested on: SK-OV-3
SK-MEL-2 = tested on: SK-MEL-2
RXF 393 = tested on: RXF 393

Measured: GI50

COC(=O)C(Cc1c[nH]c2ccccc12)NP(=O)(O)OCC1OC(n2ccc(N)nc2=O)C(O)C1O (stereo unspecified)
> 100 µM: HCT-15
inactive: IGROV-1 > 100 µM | SW-620 > 100 µM | NCI/ADR-RES > 100 µM | MCF7 > 100 µM | T47D > 100 µM | UO-31 > 100 µM | SNB-19 > 100 µM | A549 > 100 µM | SF-295 > 100 µM | UACC-62 85.9 µM | CCRF-CEM 88.3 µM | HOP-62 > 100 µM | A498 > 100 µM | TK-10 > 100 µM | MDA-MB-231 > 100 µM | SF-268 > 100 µM | SNB-75 > 100 µM | NCI-H460 > 100 µM | K562 > 100 µM | OVCAR-4 > 100 µM | HCT-116 > 100 µM | UACC-257 > 100 µM | COLO 205 > 100 µM | SR 82.2 µM | MDA-MB-435 > 100 µM | SK-MEL-5 > 100 µM | CAKI-1 > 100 µM | SN12C > 100 µM | NCI-H226 > 100 µM | EKVX > 100 µM | NCI-H23 > 100 µM | 786-0 > 100 µM | MDA-N > 100 µM | OVCAR-3 > 100 µM | OVCAR-5 > 100 µM | DU-145 > 100 µM | KM12 > 100 µM | BT-549 > 100 µM | NCI-H522 > 100 µM | HL-60 > 100 µM | Hs-578T > 100 µM | OVCAR-8 > 100 µM | Malme-3M > 100 µM | RPMI-8226 > 100 µM | HOP-92 > 100 µM | M14 > 100 µM | MOLT-4 > 100 µM | U-251 > 100 µM | PC-3 > 100 µM | SF-539 > 100 µM | ACHN > 100 µM | HT-29 > 100 µM | SK-MEL-28 > 100 µM | LOX IMVI > 100 µM

COc1cc(/C=C/C(=O)OC[C@]23O[C@H]2[C@@H](OC2OC(C)C(O)C(O)C2O)C2C=CO[C@@H](OC4OC(CO)C(O)C(O)C4O)C23)ccc1O (stereo partly specified)
inactive: IGROV-1 > 100 µM | SW-620 > 100 µM | NCI/ADR-RES > 100 µM | MCF7 > 100 µM | T47D > 100 µM | UO-31 > 100 µM | SNB-19 > 100 µM | A549 > 100 µM | SF-295 > 100 µM | UACC-62 > 100 µM | HOP-62 > 100 µM | TK-10 > 100 µM | MDA-MB-231 > 100 µM | SF-268 > 100 µM | SNB-75 > 100 µM | NCI-H460 > 100 µM | K562 > 100 µM | OVCAR-4 > 100 µM | HCT-116 > 100 µM | HCC 2998 > 100 µM | COLO 205 > 100 µM | SR > 100 µM | MDA-MB-435 > 100 µM | SK-MEL-5 > 100 µM | SN12C > 100 µM | SK-OV-3 > 100 µM | NCI-H226 > 100 µM | EKVX > 100 µM | NCI-H23 > 100 µM | 786-0 > 100 µM | MDA-N > 100 µM | OVCAR-3 > 100 µM | OVCAR-5 > 100 µM | DU-145 > 100 µM | KM12 > 100 µM | SK-MEL-2 > 100 µM | BT-549 > 100 µM | NCI-H522 > 100 µM | HL-60 > 100 µM | Hs-578T > 100 µM | OVCAR-8 > 100 µM | Malme-3M > 100 µM | RPMI-8226 > 100 µM | HOP-92 > 100 µM | M14 > 100 µM | MOLT-4 > 100 µM | U-251 > 100 µM | PC-3 > 100 µM | ACHN > 100 µM | HT-29 > 100 µM | SK-MEL-28 > 100 µM | LOX IMVI > 100 µM
> 100 µM: HCT-15

O=C(O)[C@@H]1CSCN1C(=O)[C@@H]1CCC(=S)N1
inactive: IGROV-1 > 100 µM | SW-620 > 100 µM | NCI/ADR-RES > 100 µM | MCF7 > 100 µM | T47D > 100 µM | UO-31 > 100 µM | SNB-19 > 100 µM | A549 > 100 µM | SF-295 > 100 µM | UACC-62 > 10 µM | CCRF-CEM > 100 µM | HOP-62 > 100 µM | A498 > 100 µM | TK-10 > 100 µM | MDA-MB-231 > 100 µM | SF-268 > 100 µM | SNB-75 > 100 µM | NCI-H460 > 100 µM | K562 > 100 µM | UACC-257 > 100 µM | HCC 2998 > 100 µM | SR > 100 µM | MDA-MB-435 > 100 µM | SK-MEL-5 > 100 µM | CAKI-1 > 100 µM | SN12C > 100 µM | SK-OV-3 > 100 µM | NCI-H226 > 100 µM | RXF 393 > 100 µM | NCI-H23 > 100 µM | 786-0 > 100 µM | MDA-N > 100 µM | OVCAR-3 > 100 µM | OVCAR-5 > 100 µM | DU-145 > 100 µM | KM12 > 100 µM | SK-MEL-2 > 100 µM | BT-549 > 100 µM | NCI-H522 > 100 µM | HL-60 > 100 µM | Hs-578T > 100 µM | OVCAR-8 > 100 µM | Malme-3M > 100 µM | RPMI-8226 > 100 µM | M14 > 100 µM | MOLT-4 > 100 µM | PC-3 > 100 µM | SF-539 > 100 µM | ACHN > 100 µM | HT-29 > 100 µM | SK-MEL-28 > 100 µM | LOX IMVI > 100 µM
> 100 µM: HCT-15

Reference: ChEMBL document CHEMBL1201862, “PubChem BioAssay data set” (2004)
